ChEMBL document CHEMBL5346978, “Exploration of Tetrahydroisoquinoline- and Benzo[c]azepine-Based Sphingosine 1-Phosphate Receptor 1 Agonists for the Treatment of Multiple Sclerosis” (J Med Chem, 2023)
Values belong to the compound of their own block, whether it stands above or below them. Active and inactive are the calls of the source. The calls are words filed in the database; no cut-off is given here.

Columns and labels:
[1] = molecular target: T1, Sphingosine 1-phosphate receptor 4 (Homo sapiens, UniProt O95977); experiment: Agonist activity at S1P4 (unknown origin) expressed in PathHunter CHO-K1 EDG1 beta-arrestin cells assessed as beta-arrestin recruitment; format: functional, cell-based
T1 sequence (O95977 whole entry): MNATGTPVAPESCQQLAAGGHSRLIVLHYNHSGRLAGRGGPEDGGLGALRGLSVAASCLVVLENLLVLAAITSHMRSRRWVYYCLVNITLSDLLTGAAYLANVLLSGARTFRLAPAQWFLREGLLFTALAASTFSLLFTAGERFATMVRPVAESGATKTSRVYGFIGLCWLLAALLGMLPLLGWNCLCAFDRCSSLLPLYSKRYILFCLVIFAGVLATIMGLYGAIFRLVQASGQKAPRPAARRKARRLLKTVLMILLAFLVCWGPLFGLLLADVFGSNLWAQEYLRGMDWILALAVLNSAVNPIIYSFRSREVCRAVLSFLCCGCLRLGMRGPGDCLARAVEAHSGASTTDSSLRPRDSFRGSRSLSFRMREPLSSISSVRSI

[2] = molecular target: Sphingosine 1-phosphate receptor 3 (Homo sapiens, UniProt Q99500); experiment: Agonist activity at S1P3 (unknown origin) expressed in PathHunter CHO-K1 EDG1 beta-arrestin cells assessed as beta-arrestin recruitment; format: functional, cell-based
Sequence of Sphingosine 1-phosphate receptor 3 (Q99500 whole entry): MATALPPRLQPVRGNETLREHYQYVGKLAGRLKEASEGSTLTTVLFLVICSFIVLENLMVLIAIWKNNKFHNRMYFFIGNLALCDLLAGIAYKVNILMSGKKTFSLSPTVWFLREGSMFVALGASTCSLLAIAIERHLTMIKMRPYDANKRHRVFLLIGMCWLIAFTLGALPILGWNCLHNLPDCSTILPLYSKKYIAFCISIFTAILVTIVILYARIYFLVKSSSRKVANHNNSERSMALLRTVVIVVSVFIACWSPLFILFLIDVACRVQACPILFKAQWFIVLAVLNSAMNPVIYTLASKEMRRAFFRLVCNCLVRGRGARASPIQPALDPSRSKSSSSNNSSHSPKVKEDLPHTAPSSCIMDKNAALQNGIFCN

[3] = molecular target: T1, Sphingosine 1-phosphate receptor 4; experiment: Agonist activity at S1P4 (unknown origin) expressed in CHO cells assessed as Ca2+ activation; format: functional, cell-based
CYP1A2 = molecular target: T2, CYP1A2 (Homo sapiens, UniProt P05177); experiment: Inhibition of CYP1A2 in human liver microsomes using phenacetin as substrate assessed as residual activity at 10 uM preincubated for 5 mins followed by substrate addition and measured after 15 mins in presence of NADPH by LC-MS/MS analysis; format: ADME, Microsome; conditions: probe phenacetin, time 20 min, read-out: Activity
T2 sequence (P05177 whole entry): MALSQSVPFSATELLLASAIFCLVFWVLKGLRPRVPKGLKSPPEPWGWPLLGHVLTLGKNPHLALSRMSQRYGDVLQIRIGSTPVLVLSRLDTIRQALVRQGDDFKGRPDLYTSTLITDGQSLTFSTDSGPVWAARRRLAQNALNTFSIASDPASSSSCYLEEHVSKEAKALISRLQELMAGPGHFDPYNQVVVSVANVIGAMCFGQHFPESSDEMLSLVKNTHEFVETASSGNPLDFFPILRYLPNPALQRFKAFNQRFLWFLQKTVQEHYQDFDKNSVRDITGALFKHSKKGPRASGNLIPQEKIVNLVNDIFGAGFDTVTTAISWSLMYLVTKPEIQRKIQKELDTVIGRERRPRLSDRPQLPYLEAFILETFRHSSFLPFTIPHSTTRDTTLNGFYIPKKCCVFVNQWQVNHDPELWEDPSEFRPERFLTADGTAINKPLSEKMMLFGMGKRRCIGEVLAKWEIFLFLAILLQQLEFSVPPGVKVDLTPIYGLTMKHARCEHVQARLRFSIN

[4] = Microsomal stability in rat liver microsomes assessed as parent compound remaining preincubated for 5 mins followed by NADPH addition measured after 30 mins by LC-MS/MS analysis; format: ADME, Microsome; conditions: time 35 min, read-out: Stability
[5] = molecular target: T3, Sphingosine 1-phosphate receptor 1 (Homo sapiens, UniProt P21453); experiment: Agonist activity at S1P1 (unknown origin) expressed in PathHunter CHO-K1 EDG1 beta-arrestin cells assessed as beta-arrestin2 recruitment incubated for 90 mins by chemiluminescence based assay; format: functional, cell-based
T3 sequence (P21453 whole entry): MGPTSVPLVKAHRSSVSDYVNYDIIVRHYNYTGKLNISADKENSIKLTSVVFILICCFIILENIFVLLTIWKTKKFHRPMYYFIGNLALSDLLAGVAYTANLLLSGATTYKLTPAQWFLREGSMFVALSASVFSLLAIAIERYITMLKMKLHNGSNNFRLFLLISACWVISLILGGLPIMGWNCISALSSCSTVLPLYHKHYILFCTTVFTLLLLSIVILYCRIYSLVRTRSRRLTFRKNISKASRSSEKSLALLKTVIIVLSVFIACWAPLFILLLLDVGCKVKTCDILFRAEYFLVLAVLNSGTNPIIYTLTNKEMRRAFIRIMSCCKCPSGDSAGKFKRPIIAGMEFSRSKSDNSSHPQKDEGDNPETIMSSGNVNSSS

[6] = Cmax in ICR mouse at 10 mg/kg, po measured at 0.25 to 12 hrs by LC-MS/MS analysis; format: ADME, organism-based; parameters: time upper 12 hrs, dose 10 mg/kg, time lower 0.25 hrs, route po; conditions: in vivo
[7] = Half life in ICR mouse at 1 mg/kg, iv measured at 0.25 to 12 hrs by LC-MS/MS analysis; format: ADME, organism-based; conditions: in vivo, time 0.25-12 hrs
[8] = molecular target: T3, Sphingosine 1-phosphate receptor 1; experiment: Agonist activity at S1P1 (unknown origin) expressed in PathHunter CHO-K1 EDG1 beta-arrestin cells assessed as beta-arrestin2 recruitment at 1 uM incubated for 90 mins by chemiluminescence based assay relative to control; format: functional, cell-based; conditions: filed as agonist
[9] = Observed MRT (infinitive) in ICR mouse at 10 mg/kg, po measured at 0.25 to 12 hrs by LC-MS/MS analysis; format: ADME, organism-based; conditions: in vivo, time 0.25-12 hrs
[10] = Oral bioavailability in ICR mouse at 10 mg/kg measured at 0.25 to 12 hrs by LC-MS/MS analysis; format: ADME, organism-based; conditions: in vivo, time 0.25-12 hrs
[11] = Tmax in ICR mouse at 10 mg/kg, po measured at 0.25 to 12 hrs by LC-MS/MS analysis; format: ADME, organism-based; conditions: in vivo, time 0.25-12 hrs
[12] = Observed MRT (infinitive) in ICR mouse at 1 mg/kg, iv measured at 0.25 to 12 hrs by LC-MS/MS analysis; format: ADME, organism-based; conditions: in vivo, time 0.25-12 hrs
[13] = molecular target: T3, Sphingosine 1-phosphate receptor 1; experiment: Agonist activity at S1P1 (unknown origin) expressed in human HEK293/Galpha15 cells assessed as Ca2+ activation measured for 2 hrs by FLIPR analysis; format: functional, cell-based
[14] = AUClast in ICR mouse at 10 mg/kg, po measured at 0.25 to 12 hrs by LC-MS/MS analysis; format: ADME, organism-based; parameters: time 0.25-12 hrs, dose 10 mg/kg, route po; conditions: in vivo
[15] = molecular target: T3, Sphingosine 1-phosphate receptor 1; experiment: Agonist activity at S1P1 (unknown origin) expressed in human HEK293/Galpha15 cells assessed as Ca2+ activation at 1 uM measured for 2 hrs by FLIPR analysis relative to control; format: functional, cell-based; conditions: filed as agonist
[16] = Microsomal stability in mouse liver microsomes assessed as parent compound remaining preincubated for 5 mins followed by NADPH addition measured after 30 mins by LC-MS/MS analysis; format: ADME, Microsome; conditions: time 35 min, read-out: Stability
CYP3A4 = CYP3A4 (Homo sapiens, UniProt P08684); experiment: Inhibition of CYP3A4 in human liver microsomes using midazolam as substrate assessed as residual activity at 10 uM preincubated for 5 mins followed by substrate addition and measured after 15 mins in presence of NADPH by LC-MS/MS analysis; format: ADME, Microsome; conditions: probe midazolam, time 20 min, read-out: Activity
Sequence of CYP3A4 (P08684 whole entry): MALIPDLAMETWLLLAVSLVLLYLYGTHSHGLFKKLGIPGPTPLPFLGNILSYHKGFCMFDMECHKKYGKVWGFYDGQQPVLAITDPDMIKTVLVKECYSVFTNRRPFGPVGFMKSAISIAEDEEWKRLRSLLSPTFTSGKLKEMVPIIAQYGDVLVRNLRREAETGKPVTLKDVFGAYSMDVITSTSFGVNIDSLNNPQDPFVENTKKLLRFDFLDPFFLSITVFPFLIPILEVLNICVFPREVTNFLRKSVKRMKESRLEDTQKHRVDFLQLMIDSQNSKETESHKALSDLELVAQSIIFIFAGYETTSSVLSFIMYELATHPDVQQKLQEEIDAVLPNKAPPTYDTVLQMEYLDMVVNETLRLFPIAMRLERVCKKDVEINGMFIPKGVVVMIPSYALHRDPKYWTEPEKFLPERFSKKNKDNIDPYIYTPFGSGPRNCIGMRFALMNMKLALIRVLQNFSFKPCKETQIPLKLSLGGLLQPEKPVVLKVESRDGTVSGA

[17] = AUClast in ICR mouse at 1 mg/kg, iv measured at 0.25 to 12 hrs by LC-MS/MS analysis; format: ADME, organism-based; parameters: time lower 0.25 hrs, dose 1 mg/kg, time upper 12 hrs, route iv; conditions: in vivo
[18] = Observed clearance in ICR mouse at 1 mg/kg, iv measured at 0.25 to 12 hrs by LC-MS/MS analysis; format: ADME, organism-based; conditions: in vivo, time 0.25-12 hrs
Mus musculus = experiment: In vivo agonist activity at S1P1 in mouse assessed as reduction in peripheral lymphocyte count at 10 mg/kg, po measured at 3 hrs; format: functional, organism-based
[19] = Half life in ICR mouse at 10 mg/kg, po measured at 0.25 to 12 hrs by LC-MS/MS analysis; format: ADME, organism-based; conditions: in vivo, time 0.25-12 hrs
CYP2C9 = CYP2C9 (Homo sapiens, UniProt P11712); experiment: Inhibition of CYP2C9 in human liver microsomes using diclofenac as substrate assessed as residual activity at 10 uM preincubated for 5 mins followed by substrate addition and measured after 15 mins in presence of NADPH by LC-MS/MS analysis; format: ADME, Microsome; conditions: probe diclofenac, time 20 min, read-out: Activity
Sequence of CYP2C9 (P11712 whole entry): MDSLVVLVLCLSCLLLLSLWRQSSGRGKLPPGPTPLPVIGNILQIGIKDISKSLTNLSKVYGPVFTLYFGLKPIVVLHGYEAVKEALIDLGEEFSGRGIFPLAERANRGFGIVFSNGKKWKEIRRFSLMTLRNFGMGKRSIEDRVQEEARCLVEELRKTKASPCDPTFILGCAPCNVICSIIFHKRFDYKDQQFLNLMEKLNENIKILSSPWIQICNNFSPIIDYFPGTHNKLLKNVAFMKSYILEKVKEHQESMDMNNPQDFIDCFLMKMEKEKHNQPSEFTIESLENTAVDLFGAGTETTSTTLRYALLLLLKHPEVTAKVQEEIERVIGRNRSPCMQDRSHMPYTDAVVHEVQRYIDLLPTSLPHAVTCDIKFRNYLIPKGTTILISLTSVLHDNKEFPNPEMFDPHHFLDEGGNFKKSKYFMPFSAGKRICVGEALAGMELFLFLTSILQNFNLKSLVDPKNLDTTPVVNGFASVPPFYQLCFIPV

[20] = Microsomal stability in human liver microsomes assessed as parent compound remaining preincubated for 5 mins followed by NADPH addition measured after 30 mins by LC-MS/MS analysis; format: ADME, Microsome; conditions: time 35 min, read-out: Stability
CYP2D6 = CYP2D6 (Homo sapiens, UniProt P10635); experiment: Inhibition of CYP2D6 in human liver microsomes using dextromethorphan as substrate assessed as residual activity at 10 uM preincubated for 5 mins followed by substrate addition and measured after 15 mins in presence of NADPH by LC-MS/MS analysis; format: ADME, Microsome; conditions: probe dextromethorphan, time 20 min, read-out: Activity
Sequence of CYP2D6 (P10635 whole entry): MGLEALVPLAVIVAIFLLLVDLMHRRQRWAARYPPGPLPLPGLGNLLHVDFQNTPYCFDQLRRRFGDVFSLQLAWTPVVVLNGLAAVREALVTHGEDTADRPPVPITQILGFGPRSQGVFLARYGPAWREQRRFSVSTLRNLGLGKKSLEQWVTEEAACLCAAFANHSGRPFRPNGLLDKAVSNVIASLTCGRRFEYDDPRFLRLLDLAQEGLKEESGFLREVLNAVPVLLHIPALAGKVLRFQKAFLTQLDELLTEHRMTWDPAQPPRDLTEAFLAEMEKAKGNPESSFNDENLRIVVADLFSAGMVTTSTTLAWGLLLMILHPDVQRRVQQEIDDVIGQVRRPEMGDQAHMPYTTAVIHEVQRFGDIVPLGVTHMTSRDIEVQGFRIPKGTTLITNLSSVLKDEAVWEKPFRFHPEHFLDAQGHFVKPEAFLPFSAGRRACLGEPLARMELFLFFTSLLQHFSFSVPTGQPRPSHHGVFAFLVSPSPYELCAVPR

[21] = Observed volume of distribution at steady state in ICR mouse at 1 mg/kg, iv measured at 0.25 to 12 hrs by LC-MS/MS analysis; format: ADME, organism-based; conditions: in vivo, time 0.25-12 hrs, read-out: Vdss

Structure (SMILES): CCCCCCCCCCCCC/C=C/[C@@H](O)[C@@H](N)COP(=O)(O)O
- EC50 [1]: 92 nM
- EC50 [2]: 22 nM
- EC50 [3]: 9 nM

- activity at 0.25 h, 10 µM (CYP1A2): 80.4%
- remaining at 0.5 h [4]: 93.8%
- EC50 [5]: 50 nM
- Cmax [6]: 2290 ng/mL
- half-life [7]: 144 min
- Activity [8]: 125%
- MRT inf [9]: 1.9 h
- bioavailability [10]: 46.4%
- Tmax [11]: 30 min
- MRT inf [12]: 1 h
- EC50 [13]: 14 nM
- AUC(0-t) [14]: 4290 ng·h/mL
- Activity [15]: 100%
- remaining at 0.5 h [16]: 100%
- activity at 0.25 h, 10 µM (CYP3A4): 87.5%
- AUC(0-t) [17]: 925 ng·h/mL
- clearance [18]: 18.2 mL/min/kg
- half-life [19]: 78 min
- activity at 0.25 h, 10 µM (CYP2C9): 75.4%
- remaining at 0.5 h [20]: 90.2%
- activity at 0.25 h, 10 µM (CYP2D6): 91.9%
- Vd [21]: 1.1 L/kg
Structure (SMILES): CC(C)Oc1ccc(COc2ccc3c(c2)CCN(S(=O)(=O)CCC(=O)O)C3)cc1C#N
- Activity (Mus musculus): Active
